For data set [1], the target named is T1, Phosphatidylinositol 4,5-bisphosphate 3-kinase catalytic subunit delta isoform (Homo sapiens, UniProt O00329).
T1 sequence (O00329 whole entry): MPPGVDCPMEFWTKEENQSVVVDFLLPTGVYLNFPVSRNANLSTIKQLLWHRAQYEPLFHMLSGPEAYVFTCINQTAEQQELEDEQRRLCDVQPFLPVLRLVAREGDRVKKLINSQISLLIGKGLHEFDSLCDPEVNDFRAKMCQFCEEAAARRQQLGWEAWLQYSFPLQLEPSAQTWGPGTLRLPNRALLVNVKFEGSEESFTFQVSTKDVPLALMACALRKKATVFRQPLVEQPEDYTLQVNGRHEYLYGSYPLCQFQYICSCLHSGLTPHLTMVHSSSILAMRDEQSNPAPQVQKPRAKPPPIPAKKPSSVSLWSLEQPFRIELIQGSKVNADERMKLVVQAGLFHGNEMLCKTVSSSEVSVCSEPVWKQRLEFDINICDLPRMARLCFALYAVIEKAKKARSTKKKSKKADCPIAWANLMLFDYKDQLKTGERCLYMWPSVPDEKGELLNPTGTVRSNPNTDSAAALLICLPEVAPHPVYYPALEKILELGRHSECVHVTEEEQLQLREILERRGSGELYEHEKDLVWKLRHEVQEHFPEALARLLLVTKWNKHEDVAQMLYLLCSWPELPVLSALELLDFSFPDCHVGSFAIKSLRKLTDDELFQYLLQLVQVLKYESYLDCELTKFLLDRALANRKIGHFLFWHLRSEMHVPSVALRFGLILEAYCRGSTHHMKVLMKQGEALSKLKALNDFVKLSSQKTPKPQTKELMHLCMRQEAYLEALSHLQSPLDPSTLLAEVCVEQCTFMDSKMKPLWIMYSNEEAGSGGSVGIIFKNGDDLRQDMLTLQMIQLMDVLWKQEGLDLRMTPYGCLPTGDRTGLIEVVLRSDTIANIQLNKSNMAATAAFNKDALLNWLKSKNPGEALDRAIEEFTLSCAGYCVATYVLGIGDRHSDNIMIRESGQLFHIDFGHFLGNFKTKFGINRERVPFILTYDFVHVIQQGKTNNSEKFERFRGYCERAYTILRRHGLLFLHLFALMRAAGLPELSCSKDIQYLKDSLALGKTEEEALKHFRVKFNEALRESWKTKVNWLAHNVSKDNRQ
In words: Binding affinity to PI3Kdelta (unknown origin). As to conditions: read-out: Ki(app).

Data set [2] can be described thus: Stability in human liver microsomes at 1 uM in presence of NADPH by LC-MS/MS analysis. Format: ADME, microsome. The following applies: read-out: Stability. Background: Liver microsomes are vesicles of endoplasmic reticulum, rich in cytochrome P450 enzymes.
For data set [3], the target named is T1, Phosphatidylinositol 4,5-bisphosphate 3-kinase catalytic subunit delta isoform. In words: Inhibition of PI3Kdelta in human whole blood assessed as suppression of CD69 expression.
A short description of data set [4]: Apparent permeability from apical to basolateral side in MDCKI cells at 10 uM after 2 hrs. It is filed as ADME, cell-based, Canis lupus familiaris. The following applies: dog, MDCK.

As to `CC(C)n1ncnc1-c1cn2c(n1)-c1cc(CN3CCC(C(C)(C)O)CC3)ccc1OCC2`, the Ki in data set [1] came to 20 nM. For the same compound, in data set [2], the CLhep predicted at 1 µM was 6.8 mL/min/kg.

Regarding `Cc1nc(-c2cn3c(n2)-c2cc([C@@H](C)N4CCN(C(C)(C)C)CC4)c(F)cc2OCC3)n(C(C)C)n1`, the Ki in data set [1] turned out to be 0.78 nM. Besides, the CLhep predicted at 1 µM in data set [2] is 15 mL/min/kg. For the same compound, in data set [3], the IC50 was 15 nM. For the same compound, the Papp A→B at 2 h, 10 µM in data set [4] amounted to 13.6 ×10⁻⁶ cm/s.

As to `CC(C)n1ncnc1-c1cn2c(n1)-c1cc(C(=O)N3CCN(C(C)(C)C)CC3)ccc1OCC2`, in data set [1], the Ki is 1.7 nM. Besides, the CLhep predicted at 1 µM in data set [2] was 14 mL/min/kg.

Consider `CC(C)n1ncnc1-c1cn2c(n1)-c1cc([S@@+]([O-])C3CCN(C(C)(C)C)CC3)ccc1OCC2`, for which the Ki in data set [1] turned out to be 0.81 nM. Also, in data set [2], the CLhep predicted at 1 µM was 17 mL/min/kg.

With `Cc1nc(-c2cn3c(n2)-c2cc([C@@H](C)N4CCN(C(C)(C)C)CC4)c(C)cc2OCC3)n(C(C)C)n1`, in data set [2], the CLhep predicted at 1 µM was 8.4 mL/min/kg. In addition, the Papp A→B at 2 h, 10 µM in data set [4] is 14.2 ×10⁻⁶ cm/s.

On to `Cc1nc(-c2cn3c(n2)-c2cc([C@@H](C)N4CCN(C(C)(C)C)CC4)ncc2OCC3)n(C(C)C)n1`, for which, in data set [1], the Ki was determined as 2.8 nM.

`CC(C)n1ncnc1-c1cn2c(n1)-c1cc(S(=O)(=O)N3CCN(C(C)(C)C)CC3)ccc1OCC2`: in data set [1], the Ki was 1.2 nM. For the same compound, the CLhep predicted at 1 µM in data set [2] was 20 mL/min/kg.

With `Cc1nc(-c2cn3c(n2)-c2cc([C@H](C)N4CCN(C(C)(C)C)CC4)c(F)cc2OCC3)n(C(C)C)n1`, in data set [1], the Ki was 2.4 nM.

For `CC(C)n1ncnc1-c1cn2c(n1)-c1cc([S@+]([O-])C3CCN(C(C)(C)C)CC3)ccc1OCC2`, the Ki in data set [1] was found to be 12 nM. Moreover, the CLhep predicted at 1 µM in data set [2] is 12 mL/min/kg.

Turning to `CC(C)n1ncnc1-c1cn2c(n1)-c1cc(CN3CCN(C(C)(C)C)CC3)ccc1OCC2`, the Ki in data set [1] came to 2.5 nM. Further, the CLhep predicted at 1 µM in data set [2] is 9.7 mL/min/kg.

On to `Cc1nc(-c2cn3c(n2)-c2cc([C@H](C)N4CCN(C(C)(C)C)CC4)ncc2OCC3)n(C(C)C)n1`, for which the Ki in data set [1] came to 1.9 nM. Also, the CLhep predicted at 1 µM in data set [2] is less than 3.9 mL/min/kg. The IC50 in data set [3] was found to be 28 nM. Further, in data set [4], the Papp A→B at 2 h, 10 µM came to 10 ×10⁻⁶ cm/s.

The term IC50 denotes the concentration that gives 50% inhibition. In general, Papp A→B refers to the apparent permeability from the apical to the basolateral side of a cell layer.

The values above are taken from ChEMBL document CHEMBL4130452, “Design of Selective Benzoxazepin PI3Kδ Inhibitors Through Control of Dihedral Angles” (ACS Med Chem Lett, 2017).
